The subject of experiment [1] is TET3. Nature of the experiment: TET3 protein in THP-1 cells. It counts as cell-based, human. To be noted: THP-1, 10 μM, 24 h. As to the method: Bobcat339 Treatment of Cultured Cells Bobcat339 powder (Sigma-Aldrich, SML2611) was freshly dissolved in DMSO at a concentration of 5 mM and filtered through a 0.22 micron. Cells grown at a density of 80-90% were incubated in growth media with vehicle (DMSO) or Bobcat339 at a final concentration of 10 μM for 24 h, followed by RNA and protein extraction.
Cells were homogenized in situ using a pipette tip in 2×SDS-sample buffer with 10% β-mercaptoethanol at RT followed by heating at 100 °C for 5 min with occasional vortexing. The samples were loaded onto a 4-15% gradient SDS gel (Bio-rad, 456-8086) (10 μL/well) and transferred to nitrocellulose membranes, followed by Western blot analysis. The antibodies used were anti-TET3 (diluted at 1:1000, GeneTex, GTX121453 for human; diluted at 1:1000, Active Motif, 61395 for mouse), anti-TET2 (diluted at 1:1000, Proteintech, 21207-1-AP for human/mouse), anti-TGF-β1 (diluted at 1:1000, Abcam, ab215715 for human), anti-Lin28A (diluted at 1:1000, Cell Signaling, 3978S), and HRP-conjugated anti-GAPDH (dilution 1:5000; Proteintech, HRP-60004). The secondary antibody was HRP-linked Anti-rabbit IgG (dilution 1:10,000; Rockland, 611-1322).

Experiment [2] concerns TGF-β1, IL-1β, and IL-6. Nature of the experiment: TGF-β1, IL-1β and IL-6 expression in human MDMs. It counts as cell-based. To be noted: TGF-β1-treated MDMs. From the text: Next, the studies examined effects of TET3 knockdown on expression of TGF-β1, IL-1β, and IL-6 in human MDMs. TGF-β1 has been mechanistically linked to the pathogenesis NSCLC, endometriosis, and NASH (Saito et al., 2018, Int J Mol Sci, 19; Young et al., 2017, Hum Reprod Update, 23:548-559; Cai et al., 2020, Cell Metab, 31:406-421; Baba et al., 2022, Front Pharmacol, 13:791272). It is also an important factor in the conditioned media responsible for inducing TET3 overexpression (FIG. 24H, FIG. 24J, and FIG. 24K through FIG. 24M). Therefore, MDMs were treated with TGF-β1 to mimic microenvironment-induced TET3 overexpression, followed by siRNA transfection and gene expression analyses. […] ELISA was not used to measure TGF-β1 because the transfection experiments were performed in the presence of exogenous TGF-β1. […]
Proinflammatory activation of peritoneal macrophages and MDMs was achieved by treatment with a combination of 10 ng/mL of LPS (Invitrogen, 00-4976-93) and 20 ng/mL of IFN-γ (R&D Systems, 485-MI-100). IL-1β and IL-6 protein levels in the supernatant of cultured mouse peritoneal macrophages were measured using ELISA kits (R&D Systems, MLB00C and M6000B-1). […]
IL-1β protein level of cell lysates and IL-6 protein level of cell supernatants were determined using the kits (Elabscience, E-EL-H0149c and E-EL-H6165, respectively) according to the manufacturer's protocols. […]

These results are taken from US20260355199A1, “COMPOSITIONS AND METHODS FOR TREATING OR PREVENTING NONALCOHOLIC STEATOHEPATITIS (NASH), ANOREXIA, DEPRESSION, ENDOMETRIOSIS, AND OTHER DISEASES OR DISORDERS” (priority 2022, published 2026).

As for `Nc1nc(=O)n(-c2cccc(-c3ccccc3)c2)cc1Cl` [Bobcat339, 4-Amino-1-[1,1′-biphenyl]-3-yl-5-chloro-2(1H)-pyrimidinone], the TET3 protein level entry in experiment [1] was “a decrease in TET3 at the protein level”. The “TGF-β1, IL-1β, and IL-6 expression” value in experiment [2] was “able to recapitulate these effects on all three factors”.
